The text below walks through data of ChEMBL document CHEMBL1128910, “Time-dependent inactivation of steroid C17(20) lyase by 17-cyclopropyl ether-substituted steroids” (Bioorg Med Chem Lett, 1996).

Test [1] deals with T1, Steroid 17-alpha-hydroxylase/17,20 lyase (Homo sapiens, UniProt P05093).
T1 sequence (P05093 whole entry): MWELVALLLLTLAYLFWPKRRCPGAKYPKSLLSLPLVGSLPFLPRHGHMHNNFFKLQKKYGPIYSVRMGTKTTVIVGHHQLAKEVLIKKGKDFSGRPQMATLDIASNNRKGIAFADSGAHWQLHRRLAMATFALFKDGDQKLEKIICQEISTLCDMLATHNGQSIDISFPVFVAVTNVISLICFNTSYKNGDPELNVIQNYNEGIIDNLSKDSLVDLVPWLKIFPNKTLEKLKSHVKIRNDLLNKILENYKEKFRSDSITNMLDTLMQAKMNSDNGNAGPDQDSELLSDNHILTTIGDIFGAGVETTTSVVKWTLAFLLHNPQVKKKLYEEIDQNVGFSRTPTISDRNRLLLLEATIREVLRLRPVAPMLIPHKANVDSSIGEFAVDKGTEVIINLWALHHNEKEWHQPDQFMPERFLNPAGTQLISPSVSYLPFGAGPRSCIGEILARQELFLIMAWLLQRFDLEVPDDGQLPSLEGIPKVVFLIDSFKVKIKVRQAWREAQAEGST
The test is described as follows: Inhibition of cynomolgus monkey Cytochrome P450 steroid 17-alpha-hydroxylase/17,20 lyase at 0.1 uM pre-incubation time of 40 minutes.

For test [2], the target named is T1, Steroid 17-alpha-hydroxylase/17,20 lyase. Put plainly: Inhibition of cynomolgus monkey Cytochrome P450 steroid 17-alpha-hydroxylase/17,20 lyase at 1 uM.
For test [3] the target is unchanged. The test is described as follows: Inhibition of cynomolgus monkey Cytochrome P450 steroid 17-alpha-hydroxylase/17,20 lyase at 1 uM preincubation time 40 minutes.
The target is the same in test [4]. The test is described as follows: Inhibition of cynomolgus monkey Cytochrome P450 steroid 17-alpha-hydroxylase/17,20 lyase at 0.1 uM.
The target is the same in test [5]. Put plainly: Inhibition of human Cytochrome P450 steroid 17-alpha-hydroxylase/17,20 lyase at 0.8 uM.
Test [6] shares this target. The test is described as follows: Inhibition of human Cytochrome P450 steroid 17-alpha-hydroxylase/17,20 lyase at 0.8 uM pre-incubation time 30 minutes.

As usually defined, the inhibition is the drop in the measured response relative to a control, in per cent.

In the case of `C[C@]12CCC(=O)C=C1CCC1C2CC[C@@]2(C)C1CC[C@@H]2OC1CC1` (stereo partly specified), the inhibition at 0.1 µM was 55% in test [1] and 26% in test [4]. In addition, the inhibition at 1 µM in test [2] was 73%; in test [3], 90%.

For the compound `C[C@]12CCC(=O)C=C1C(=O)CC1C2CC[C@@]2(C)C1CC[C@@H]2OC1CC1` (stereo partly specified), the inhibition at 0.1 µM was 51% in test [1] and 17% in test [4]. Moreover, the inhibition at 1 µM was 52% in test [2] and 79% in test [3].

Regarding `CC1(C)C2=CCC3C(CC[C@@]4(C)C3CC[C@@H]4OC3CC3)[C@@]2(C)CC[C@@H]1O` (stereo partly specified), the inhibition at 0.8 µM in test [5] and in test [6] was 0% each time.

In the case of `C[C@]12CC[C@H](O)CC1=CCC1C2CC[C@@]2(C)C1CC[C@@H]2OC1CC1` (stereo partly specified), the inhibition at 0.8 µM in test [5] was determined as 11%; in test [6] it was 64%.

For the compound `C[C@]12CCC3C(CCC4=CC(=O)[C@H]5COC[C@]43C5)C1CC[C@@H]2OC1CC1` (stereo partly specified), the inhibition at 0.8 µM in test [5] turned out to be 1%; in test [6], 17%.

With `C[C@]12CCC3C(CC=C4C[C@@H](O)[C@H]5COC[C@]43C5)C1CC[C@@H]2OC1CC1` (stereo partly specified), the inhibition at 0.8 µM in test [5] and in test [6] was 0% in each case.
